In ChEMBL document CHEMBL3046465, “A facile synthesis of new 3,3-disubstituted phthalides of pharmacological interest” (Med Chem Res, 2013):
Converted amounts (≈) assume the structure as drawn.

Experiments:
Pichia kudriavzevii [1] = test: Antifungal activity against Pichia kudriavzevii ATCC 6258 assessed as growth inhibition after 46 to 50 hr by CLSI broth dilution method; assay type: functional
Aspergillus fumigatus [2] = test: Antifungal activity against Aspergillus fumigatus ATCC 204305 assessed as growth inhibition after 46 to 50 hr by Alamar blue assay; assay type: functional, organism-based
Candida albicans [3] = test: Antifungal activity against Candida albicans ATCC 90028 assessed as growth inhibition after 46 to 50 hr by Alamar blue assay; assay type: functional, organism-based
Pichia kudriavzevii [4] = test: Antifungal activity against Pichia kudriavzevii ATCC 6258 assessed as growth inhibition after 46 to 50 hr by optical density measurement
Nakaseomyces glabratus [5] = test: Antifungal activity against Candida glabrata ATCC 90030 assessed as growth inhibition after 46 to 50 hr by optical density measurement
Cryptococcus neoformans [6] = test: Antifungal activity against Cryptococcus neoformans ATCC 90113 assessed as growth inhibition after 70 to 74 hr by Alamar blue assay; assay type: functional, organism-based
Aspergillus fumigatus [7] = test: Antifungal activity against Aspergillus fumigatus ATCC 204305 assessed as growth inhibition after 46 to 50 hr by CLSI broth dilution method; assay type: functional
Candida albicans [8] = test: Antifungal activity against Candida albicans ATCC 90028 assessed as growth inhibition after 46 to 50 hr by CLSI broth dilution method; assay type: functional
Nakaseomyces glabratus [9] = test: Antifungal activity against Candida glabrata ATCC 90030 assessed as growth inhibition after 46 to 50 hr by CLSI broth dilution method; assay type: functional
Cryptococcus neoformans [10] = test: Antifungal activity against Cryptococcus neoformans ATCC 90113 assessed as growth inhibition after 70 to 74 hr by CLSI broth dilution method; assay type: functional
Escherichia coli [11] = test: Antibacterial activity against Escherichia coli ATCC 35218 assessed as growth inhibition after 16 to 20 hr by CLSI broth dilution method; assay type: functional
Staphylococcus aureus [12] = test: Antibacterial activity against Staphylococcus aureus ATCC 29213 assessed as growth inhibition after 16 to 20 hr by CLSI broth dilution method; assay type: functional
Pseudomonas aeruginosa [13] = test: Antibacterial activity against Pseudomonas aeruginosa ATCC 27853 assessed as growth inhibition after 16 to 20 hr by optical density measurement
[14] = test system: Mycobacterium intracellulare; test: Antibacterial activity against Mycobacterium intracellulare ATCC 23068 assessed as growth inhibition after 70 to 74 hr by Alamar blue assay; assay type: functional, organism-based
[15] = test system: Mycobacterium intracellulare; test: Antibacterial activity against Mycobacterium intracellulare ATCC 23068 assessed as growth inhibition after 70 to 74 hr by CLSI broth dilution method; assay type: functional
Staphylococcus aureus [16] = test: Antibacterial activity against methicillin-resistant Staphylococcus aureus ATCC 33591 assessed as growth inhibition after 16 to 20 hr by Alamar blue assay; assay type: functional, organism-based
Pseudomonas aeruginosa [17] = test: Antibacterial activity against Pseudomonas aeruginosa ATCC 27853 assessed as growth inhibition after 16 to 20 hr by CLSI broth dilution method; assay type: functional
Escherichia coli [18] = test: Antibacterial activity against Escherichia coli ATCC 35218 assessed as growth inhibition after 16 to 20 hr by optical density measurement
Staphylococcus aureus [19] = test: Antibacterial activity against methicillin-resistant Staphylococcus aureus ATCC 33591 assessed as growth inhibition after 16 to 20 hr by CLSI broth dilution method; assay type: functional
Staphylococcus aureus [20] = test: Antibacterial activity against Staphylococcus aureus ATCC 29213 assessed as growth inhibition after 16 to 20 hr by Alamar blue assay; assay type: functional, organism-based
Escherichia coli [21] = test: Antibacterial activity against Escherichia coli ATCC 35218 assessed as growth inhibition after 16 to 20 hr by optical density method

Structure (SMILES) | MIC (Pichia kudriavzevii [1]) [µg/mL] | IC50 (Aspergillus fumigatus [2]) [µg/mL] | IC50 (Candida albicans [3]) [µg/mL] | IC50 (Pichia kudriavzevii [4]) [µg/mL] | IC50 (Nakaseomyces glabratus [5]) [µg/mL] | IC50 (Cryptococcus neoformans [6]) [µg/mL] | MIC (Aspergillus fumigatus [7]) [µg/mL] | MIC (Candida albicans [8]) [µg/mL] | MIC (Nakaseomyces glabratus [9]) [µg/mL] | MIC (Cryptococcus neoformans [10]) [µg/mL] | MIC (Escherichia coli [11]) [µg/mL] | MIC (Staphylococcus aureus [12]) [µg/mL] | IC50 (Pseudomonas aeruginosa [13]) [µg/mL] | IC50 [14] [µg/mL] | MIC [15] [µg/mL] | IC50 (Staphylococcus aureus [16]) [µg/mL] | MIC (Pseudomonas aeruginosa [17]) [µg/mL] | IC50 (Escherichia coli [18]) [µg/mL] | MIC (Staphylococcus aureus [19]) [µg/mL] | IC50 (Staphylococcus aureus [20]) [µg/mL] | also measured
C[C@@H]1[C@H](O)[C@@H](C)/C=C/C=C/C=C/C=C/C=C/C=C/C=C/[C@H](O[C@@H]2O[C@H](C)[C@@H](O)[C@H](N)[C@@H]2O)C[C@@H]2O[C@](O)(C[C@@H](O)C[C@@H](O)[C@H](O)CC[C@@H](O)C[C@@H](O)CC(=O)O[C@H]1C)C[C@H](O)[C@H]2C(=O)O [AMPHOTERICIN B] | 1.25 (≈ 1.35 µM) | 0.67 (≈ 0.725 µM) | 0.2 (≈ 0.216 µM) | 0.56 (≈ 0.606 µM) | 0.28 (≈ 0.303 µM) | 0.32 (≈ 0.346 µM) | 1.25 (≈ 1.35 µM) | 0.52 (≈ 0.563 µM) | 0.63 (≈ 0.682 µM) | 0.63 (≈ 0.682 µM) | – | – | – | – | – | – | – | – | – | – | –
CC(C)c1ccc(C2(c3ccc(O)c(O)c3O)OC(=O)c3ccccc32)cc1[N+](=O)[O-] (configuration not stated) | > 200 | > 200 | 98.9 (≈ 235 µM) | 88.7 (≈ 210 µM) | 21.3 (≈ 50.6 µM) | > 200 | > 200 | > 200 | 83.3 (≈ 198 µM) | > 200 | > 200 | 100 (≈ 237 µM) | 163 (≈ 386 µM) | > 200 | > 200 | 45.7 (≈ 108 µM) | > 200 | > 200 | 133 (≈ 316 µM) | 42.3 (≈ 100 µM) | –
O=C(O)c1cn(C2CC2)c2cc(N3CCNCC3)c(F)cc2c1=O [CIPROFLOXACIN] | – | – | – | – | – | – | – | – | – | – | – | – | – | 0.32 (≈ 0.966 µM) | – | – | – | 0.005 (≈ 0.0151 µM) | – | – | –
CC(C)c1ccc(C2(c3ccc(O)c(O)c3O)OC(=O)c3ccccc32)cc1 (configuration not stated) | > 200 | > 200 | 65 (≈ 173 µM) | 25.5 (≈ 67.7 µM) | 17.5 (≈ 46.5 µM) | > 200 | > 200 | > 200 | > 200 | > 200 | > 200 | 25 (≈ 66.4 µM) | 116 (≈ 309 µM) | > 200 | > 200 | 18.8 (≈ 49.9 µM) | > 200 | – | 25 (≈ 66.4 µM) | 18.4 (≈ 49 µM) | IC50 (Escherichia coli [21]): 170 µg/mL (≈ 451 µM)
CC(C)c1ccc(C2(c3ccc(O)c(O)c3)OC(=O)c3ccccc32)cc1[N+](=O)[O-] (configuration not stated) | > 100 | > 200 | > 200 | > 200 | 76.3 (≈ 188 µM) | > 200 | > 100 | > 100 | > 100 | > 100 | > 200 | 50 (≈ 123 µM) | > 200 | > 200 | > 200 | 27.8 (≈ 68.5 µM) | > 200 | > 200 | 50 (≈ 123 µM) | 26.4 (≈ 65 µM) | –
CC(C)c1ccc(C2(c3ccc(O)c(O)c3)OC(=O)c3ccccc32)cc1 (configuration not stated) | > 200 | 53.2 (≈ 148 µM) | 172 (≈ 478 µM) | 15.5 (≈ 42.9 µM) | 45.8 (≈ 127 µM) | 137 (≈ 381 µM) | > 200 | > 200 | 200 (≈ 555 µM) | > 200 | > 200 | 18.8 (≈ 52 µM) | 61 (≈ 169 µM) | > 200 | > 200 | 6.81 (≈ 18.9 µM) | > 200 | > 200 | 12.5 (≈ 34.7 µM) | 4.96 (≈ 13.8 µM) | –
